Measured values taken from ChEMBL document CHEMBL4311957, “Recent advances in natural antifungal flavonoids and their derivatives” (Bioorg Med Chem Lett, 2019).
Converted amounts (≈) assume the structure as drawn.

Columns and labels:
Nakaseomyces glabratus [1] = experiment: Antifungal activity against Candida glabrata ATCC 90030; assay type: functional
Nannizzia gypsea = experiment: Antifungal activity against Microsporum gypseum after 5 days; assay type: functional; conditions: 120 h
Saccharomyces cerevisiae = experiment: Antifungal activity against Saccharomyces cerevisiae ATCC 9763 after 48 hrs by CLSI-based broth microdilution method; assay type: functional; conditions: ATCC 9763, 48 h
[2] = test system: Trichophyton mentagrophytes; experiment: Antifungal activity against Trichophyton mentagrophytes after 5 days; assay type: functional; conditions: 120 h
Trichophyton tonsurans = experiment: Antifungal activity against Trichophyton tonsurans after 5 days; assay type: functional; conditions: 120 h
Candida tropicalis [3] = experiment: Antifungal activity against Candida tropicalis CCC 131-2000 after 48 hrs by CLSI-based broth microdilution method; assay type: functional; conditions: CCC 131-2000, 48 h
Candida albicans [4] = experiment: Antifungal activity against Candida albicans ATCC 10231 after 48 hrs by CLSI-based broth microdilution method; assay type: functional; conditions: ATCC 10231, 48 h
Trichophyton rubrum = experiment: Antifungal activity against Trichophyton rubrum after 5 days; assay type: functional; conditions: 120 h
Cryptococcus neoformans [5] = experiment: Antifungal activity against Cryptococcus neoformans ATCC 32264 after 48 hrs by CLSI-based broth microdilution method; assay type: functional; conditions: ATCC 32264, 48 h
Cryptococcus neoformans [6] = experiment: Antifungal activity against Cryptococcus neoformans after 72 hrs; assay type: functional
Cryptococcus gattii = experiment: Antifungal activity against Cryptococcus gattii after 72 hrs; assay type: functional, Cryptococcus gattii VGI
Nakaseomyces glabratus [7] = experiment: Antifungal activity against Candida glabrata 510 by microdilution method; assay type: functional
Candida albicans [8] = experiment: Antifungal activity against Candida albicans 53 by microdilution method; assay type: functional
Nakaseomyces glabratus [9] = experiment: Antifungal activity against Candida glabrata 531 by microdilution method; assay type: functional
Nakaseomyces glabratus [10] = experiment: Antifungal activity against Candida glabrata 493 by microdilution method; assay type: functional
Nakaseomyces glabratus [11] = experiment: Antifungal activity against Candida glabrata 587 by microdilution method; assay type: functional
Nakaseomyces glabratus [12] = experiment: Antifungal activity against Candida glabrata 507 by microdilution method; assay type: functional
Candida albicans [13] = experiment: Antifungal activity against Candida albicans 501 by microdilution method; assay type: functional
Candida albicans [14] = experiment: Antifungal activity against Candida albicans 498 by microdilution method; assay type: functional
Candida parapsilosis [15] = experiment: Antifungal activity against Candida parapsilosis 96 by microdilution method; assay type: functional; conditions: Lodderomyces parapsilosis
Nakaseomyces glabratus [16] = experiment: Antifungal activity against Candida glabrata 482 by microdilution method; assay type: functional
Pichia kudriavzevii = experiment: Antifungal activity against Candida krusei 168 by microdilution method; assay type: functional
Candida tropicalis [17] = experiment: Antifungal activity against Candida tropicalis 166 by microdilution method; assay type: functional
Candida albicans [18] = experiment: Antifungal activity against Candida albicans ATCC 10231 by microdilution method; assay type: functional
Candida albicans [19] = experiment: Antifungal activity against Candida albicans after 48 hrs by broth micro dilution method; assay type: functional
Cryptococcus neoformans [20] = experiment: Antifungal activity against Cryptococcus neoformans after 48 hrs by broth micro dilution method; assay type: functional
Candida parapsilosis [21] = experiment: Antifungal activity against Candida parapsilosis after 48 hrs by broth micro dilution method; assay type: functional; conditions: Lodderomyces parapsilosis
Candida albicans [22] = experiment: Antifungal activity against Candida albicans; assay type: functional, organism-based
Aspergillus fumigatus = experiment: Antifungal activity against Aspergillus fumigatus; assay type: functional
Cryptococcus neoformans [23] = experiment: Antifungal activity against Cryptococcus neoformans; assay type: functional

MIC (Trichophyton rubrum) [µg/mL]	MIC (Cryptococcus neoformans [6]) [µg/mL]	MIC (Cryptococcus gattii) [µg/mL]	MIC (Nakaseomyces glabratus [7]) [µg/mL]	MIC (Candida albicans [8]) [µg/mL]	MIC (Nakaseomyces glabratus [9]) [µg/mL]	MIC (Nakaseomyces glabratus [10]) [µg/mL]	MIC (Nakaseomyces glabratus [11]) [µg/mL]	MIC (Nakaseomyces glabratus [12]) [µg/mL]	MIC (Candida albicans [13]) [µg/mL]	MIC (Candida albicans [14]) [µg/mL]	MIC (Candida parapsilosis [15]) [µg/mL]	MIC (Nakaseomyces glabratus [16]) [µg/mL]	MIC (Pichia kudriavzevii) [µg/mL]	MIC (Candida tropicalis [17]) [µg/mL]	MIC (Candida albicans [18]) [µg/mL]	SMILES	further results
4 to 128 (≈ 8.33 to 266 µM)	8 to 128 (≈ 16.7 to 266 µM)	128 (≈ 266 µM)														O=c1c(O[C@@H]2O[C@H](CO)[C@@H](O)[C@H](O)[C@H]2O)c(-c2cc(O)c(O)c(O)c2)oc2cc(O)cc(O)c12	MIC (Nakaseomyces glabratus [1]): 8.53 µg/mL (≈ 17.8 µM); MIC (Nannizzia gypsea): 4 to 128 µg/mL (≈ 8.33 to 266 µM); MIC (Saccharomyces cerevisiae): 31.2 µg/mL (≈ 64.9 µM); MIC [2]: 4 to 128 µg/mL (≈ 8.33 to 266 µM); MIC (Trichophyton tonsurans): 4 to 128 µg/mL (≈ 8.33 to 266 µM); MIC (Candida tropicalis [3]): 31.2 µg/mL (≈ 64.9 µM); MIC (Candida albicans [4]): 31.2 µg/mL (≈ 64.9 µM); MIC (Cryptococcus neoformans [5]): 31.2 µg/mL (≈ 64.9 µM)
64 (≈ 224 µM)	128 (≈ 447 µM)	128 (≈ 447 µM)	7.8 to 15.6 (≈ 27.2 to 54.5 µM)	> 83	7.8 to 15.6 (≈ 27.2 to 54.5 µM)	7.8 to 15.6 (≈ 27.2 to 54.5 µM)	7.8 to 15.6 (≈ 27.2 to 54.5 µM)	7.8 to 15.6 (≈ 27.2 to 54.5 µM)	> 83	> 83	> 83	7.8 to 15.6 (≈ 27.2 to 54.5 µM)	> 83	> 83	> 83	O=c1c(O)c(-c2ccc(O)c(O)c2)oc2cc(O)ccc12 [FISETIN]	
4 to 128 (≈ 12.6 to 402 µM)	8 to 128 (≈ 25.1 to 402 µM)	128 (≈ 402 µM)	3.9 to 15.7 (≈ 12.3 to 49.3 µM)	16 to 64 (≈ 50.3 to 201 µM)	3.9 to 15.7 (≈ 12.3 to 49.3 µM)	3.9 to 15.7 (≈ 12.3 to 49.3 µM)	3.9 to 15.7 (≈ 12.3 to 49.3 µM)	3.9 to 15.7 (≈ 12.3 to 49.3 µM)	16 to 64 (≈ 50.3 to 201 µM)	16 to 64 (≈ 50.3 to 201 µM)	16 (≈ 50.3 µM)	3.9 to 15.7 (≈ 12.3 to 49.3 µM)	64 (≈ 201 µM)	64 (≈ 201 µM)	16 to 64 (≈ 50.3 to 201 µM)	O=c1c(O)c(-c2cc(O)c(O)c(O)c2)oc2cc(O)cc(O)c12 [MYRICETIN]	MIC (Nakaseomyces glabratus [1]): 6.79 µg/mL (≈ 21.3 µM); MIC (Nannizzia gypsea): 4 to 128 µg/mL (≈ 12.6 to 402 µM); MIC (Saccharomyces cerevisiae): 31.2 µg/mL (≈ 98 µM); MIC [2]: 4 to 128 µg/mL (≈ 12.6 to 402 µM); MIC (Trichophyton tonsurans): 4 to 128 µg/mL (≈ 12.6 to 402 µM); MIC (Candida tropicalis [3]): 31.2 µg/mL (≈ 98 µM); MIC (Candida albicans [4]): 31.2 µg/mL (≈ 98 µM); MIC (Cryptococcus neoformans [5]): 31.2 µg/mL (≈ 98 µM)
																C[C@@H]1O[C@@H](OC[C@H]2O[C@@H](Oc3c(-c4ccc(O)c(O)c4)oc4cc(O)cc(O)c4c3=O)[C@H](O)[C@@H](O)[C@@H]2O)[C@H](O)[C@H](O)[C@H]1O [RUTIN]	MIC (Candida albicans [19]): > 256 µg/mL; MIC (Cryptococcus neoformans [20]): > 256 µg/mL; MIC (Candida parapsilosis [21]): > 256 µg/mL
																C=CC(C)(C)c1cc([C@@H]2CC(=O)c3c(O)cc(O)c(CC=C(C)C)c3O2)c(O)cc1O	IC50 (Candida albicans [22]): 121 µM; MIC (Candida albicans [22]): 121 µg/mL (≈ 285 µM)
																CC(=O)c1c(O)c(C)c(O)c(Cc2c(O)c(C(=O)/C=C/c3ccc(O)cc3)c3c(c2O)[C@@H]2Oc4c(Cc5c(O)c(O)c(O)c(C(C)=O)c5O)c(O)c(C(=O)/C=C/c5ccc(O)cc5)c5c4[C@H](CC(C)(C)O5)[C@H]2C(C)(C)O3)c1O	MIC50 (Aspergillus fumigatus): 16 µg/mL (≈ 15 µM); MIC50 (Cryptococcus neoformans [23]): 4 to 8 µg/mL (≈ 3.75 to 7.5 µM)

SMILES	MIC (Trichophyton rubrum) [µg/mL]	MIC (Cryptococcus neoformans [6]) [µg/mL]	MIC (Cryptococcus gattii) [µg/mL]	MIC (Nakaseomyces glabratus [7]) [µg/mL]	MIC (Candida albicans [8]) [µg/mL]	MIC (Nakaseomyces glabratus [9]) [µg/mL]	MIC (Nakaseomyces glabratus [10]) [µg/mL]	MIC (Nakaseomyces glabratus [11]) [µg/mL]	MIC (Nakaseomyces glabratus [12]) [µg/mL]	MIC (Candida albicans [13]) [µg/mL]	MIC (Candida albicans [14]) [µg/mL]	MIC (Candida parapsilosis [15]) [µg/mL]	MIC (Nakaseomyces glabratus [16]) [µg/mL]	MIC (Pichia kudriavzevii) [µg/mL]	MIC (Candida tropicalis [17]) [µg/mL]	MIC (Candida albicans [18]) [µg/mL]	further results
C[C@@H]1O[C@@H](Oc2c(-c3ccc(O)c(O)c3)oc3cc(O)cc(O)c3c2=O)[C@H](O)[C@H](O)[C@H]1O [QUERCITRIN]				7.8 to 62.5 (≈ 17.4 to 139 µM)	> 83	7.8 to 62.5 (≈ 17.4 to 139 µM)	7.8 to 62.5 (≈ 17.4 to 139 µM)	7.8 to 62.5 (≈ 17.4 to 139 µM)	7.8 to 62.5 (≈ 17.4 to 139 µM)	> 83	> 83	> 83	7.8 to 62.5 (≈ 17.4 to 139 µM)	> 83	> 83	> 83	
